Where a name gives a salt, the structure may show the parent alone.
Assays:
AmpC (P99) = AmpC (P99) (Enterobacter cloacae, UniProt P05364); experiment: β-lactamase inhibitory activity, determination of IC50 (nitrocefin hydrolysis)
OXA-48 = molecular target: T1, OXA-48 (Klebsiella pneumoniae, UniProt Q6XEC0); experiment: as above; type: biochemical; conditions: class (D); nitrocefin 200 μM, 30 min pre-incubation; read-out: IC50 β-lactamase OXA-48
T1 construct: made in house; host or cells: E. coli

SHV-1 = molecular target: T2, SHV-1 (Klebsiella pneumoniae, UniProt P0AD64); experiment: as above; type: biochemical
T2 construct: made in house; host or cells: E. coli

OXA-1 = molecular target: T3, OXA-1 (Escherichia coli, UniProt P13661); experiment: as above; type: biochemical; conditions: class (D); nitrocefin 200 μM, 30 min pre-incubation; read-out: IC50 β-lactamase OXA-1
T3 construct: made in house; host or cells: E. coli

AmpC P. aeruginosa = AmpC P. aeruginosa (Pseudomonas aeruginosa, UniProt P24735); experiment: as above
[1] = tested on: K. pneumoniae 6299 (TEM-1, SHV-11, OXA-163); experiment: MIC of compounds alone, broth microdilution; type: cell-based; conditions: Klebsiella pneumoniae; strain 6299 (K. pneumoniae); read-out: MIC compounds of the invention alone
Protocol: (§1) Method 2: MIC of Compounds and Synergy with Ceftazidime Against Bacterial Isolates (Table 2 and 3)
(§2) Compounds of the present invention were assessed against genotyped bacterial strains alone or in combination with the β-lactam ceftazidime (CAZ). In the assays, MICs of said compounds, or of ceftazidime at fixed concentrations of said compounds were determined by the broth microdilution method according to the Clinical Laboratory Standards Institute (CLSI-M7-A7). Briefly, compounds alone according to the invention were prepared in DMSO and spotted (2 μL each) on sterile polystyrene plates (Corning, 3788). Compounds and ceftazidime dilutions were prepared in DMSO and spotted (1 μL each) on sterile polystyrene plates (Corning, 3788). Log phase bacterial suspensions were adjusted to a final density of 5×10^5 cfu/mL in cation-adjusted Mueller-Hinton broth (Becton-Dickinson) and added to each well (98 μL). Microplates were incubated for 16-20 h at 35° C. in ambient air. The MIC of the compounds was defined as the lowest concentration of said compounds that prevented bacterial growth as read by visual inspection. The MIC of ceftazidime at each compound concentration was defined as the lowest concentration of ceftazidime that prevented bacterial growth as read by visual inspection.

[2] = tested on: K. pneumoniae BAA-1898 (TEM-1, SHV-11, SHV-12, KPC-2); experiment: MIC of compounds alone, broth microdilution; type: cell-based; conditions: Klebsiella pneumoniae, BAA1898; strain BAA-1898 (K. pneumoniae); read-out: MIC compounds of the invention alone
Protocol: as §1, §2

[3] = tested on: E. coli 190317 (TEM-1, SHV-12, CTX-M-15, OXA-1); experiment: MIC of compounds alone, broth microdilution; type: cell-based; conditions: Escherichia coli, read-out: MIC compounds of the invention alone
Protocol: as §1, §2

E. cloacae P99 (AmpC) = experiment: MIC of compounds alone, broth microdilution; type: cell-based; conditions: Enterobacter cloacae; strain P99 (E. cloacae); read-out: MIC compounds of the invention alone
Protocol: as §1, §2

[4] = tested on: P. aeruginosa CIP107051 (TEM-24); experiment: MIC of compounds alone, broth microdilution; type: cell-based; conditions: Pseudomonas aeruginosa; strain CIP107051 (P. aeruginosa); read-out: MIC compounds of the invention alone
Protocol: as §1, §2

E. coli RGN238 (OXA-1) = experiment: MIC of compounds alone, broth microdilution; type: cell-based; conditions: Escherichia coli; strain RGN238 (E. coli); read-out: MIC compounds of the invention alone
Protocol: as §1, §2

[5] = tested on: E. coli 131119 (TEM-1, OXA-48); experiment: MIC of compounds alone, broth microdilution; type: cell-based; conditions: Escherichia coli; strain 131119 (E. coli); read-out: MIC compounds of the invention alone
Protocol: as §1, §2

OXA-11 = molecular target: T4, OXA-11 (Pseudomonas aeruginosa, UniProt Q06778); experiment: β-lactamase inhibitory activity, determination of IC50 (nitrocefin hydrolysis); type: biochemical
T4 construct: made in house; host or cells: E. coli

CTX-M-15 = molecular target: T5, CTX-M-15 (Escherichia coli, UniProt Q9EXV5); experiment: as above; type: biochemical; conditions: class (A); nitrocefin 200 μM, 30 min pre-incubation; read-out: IC50 β-lactamase CTX-M-15
T5 construct: made in house; host or cells: E. coli

OXA-15 = molecular target: T6, OXA-15 (Pseudomonas aeruginosa, UniProt Q51574); experiment: biochemical
T6 construct: made in house; host or cells: E. coli

TEM-1 = molecular target: T7, TEM-1 (Escherichia coli, UniProt P62593); experiment: β-lactamase inhibitory activity, determination of IC50 (nitrocefin hydrolysis); type: biochemical
T7 construct: made in house; host or cells: E. coli

KPC-2 = molecular target: T8, KPC-2 (Klebsiella pneumoniae, UniProt Q9F663); experiment: as above; type: biochemical; conditions: class (A); nitrocefin 200 μM, 30 min pre-incubation; read-out: IC50 β-lactamase KPC-2
T8 construct: made in house; host or cells: E. coli
T8 sequence (Q9F663 25-293 limits assumed): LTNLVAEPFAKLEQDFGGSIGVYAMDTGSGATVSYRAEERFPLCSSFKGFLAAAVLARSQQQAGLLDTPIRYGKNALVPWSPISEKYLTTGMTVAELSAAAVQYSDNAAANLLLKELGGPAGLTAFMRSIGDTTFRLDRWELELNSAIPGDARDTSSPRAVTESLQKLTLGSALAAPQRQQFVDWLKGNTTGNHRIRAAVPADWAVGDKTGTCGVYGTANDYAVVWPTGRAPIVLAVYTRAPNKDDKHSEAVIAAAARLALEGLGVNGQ

T4 sequence (Q06778 21-266): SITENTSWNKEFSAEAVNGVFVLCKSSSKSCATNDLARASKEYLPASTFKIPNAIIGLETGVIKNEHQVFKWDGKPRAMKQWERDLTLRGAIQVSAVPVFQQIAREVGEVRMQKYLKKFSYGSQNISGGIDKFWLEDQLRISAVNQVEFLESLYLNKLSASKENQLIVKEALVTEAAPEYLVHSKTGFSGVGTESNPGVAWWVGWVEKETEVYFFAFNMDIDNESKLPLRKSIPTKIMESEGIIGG
AmpC P. aeruginosa, sequence (P24735 27-397): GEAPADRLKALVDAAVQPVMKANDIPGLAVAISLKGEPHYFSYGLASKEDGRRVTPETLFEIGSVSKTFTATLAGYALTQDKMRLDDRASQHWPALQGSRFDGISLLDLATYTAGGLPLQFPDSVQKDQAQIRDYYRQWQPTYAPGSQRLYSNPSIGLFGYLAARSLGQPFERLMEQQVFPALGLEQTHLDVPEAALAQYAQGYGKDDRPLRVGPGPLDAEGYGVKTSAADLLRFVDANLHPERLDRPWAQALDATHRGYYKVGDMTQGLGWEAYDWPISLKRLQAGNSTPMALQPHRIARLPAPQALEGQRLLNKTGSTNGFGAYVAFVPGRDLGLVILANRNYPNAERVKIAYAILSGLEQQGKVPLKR
T2 sequence (P0AD64 22-286): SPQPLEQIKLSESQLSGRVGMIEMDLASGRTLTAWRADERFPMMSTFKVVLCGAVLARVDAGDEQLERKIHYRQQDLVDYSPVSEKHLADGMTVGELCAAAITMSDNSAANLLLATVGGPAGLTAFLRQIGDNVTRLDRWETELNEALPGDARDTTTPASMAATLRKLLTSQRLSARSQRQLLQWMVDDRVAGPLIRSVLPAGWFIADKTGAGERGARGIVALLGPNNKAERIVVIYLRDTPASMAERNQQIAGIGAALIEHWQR
T7 sequence (P62593 24-286 limits assumed): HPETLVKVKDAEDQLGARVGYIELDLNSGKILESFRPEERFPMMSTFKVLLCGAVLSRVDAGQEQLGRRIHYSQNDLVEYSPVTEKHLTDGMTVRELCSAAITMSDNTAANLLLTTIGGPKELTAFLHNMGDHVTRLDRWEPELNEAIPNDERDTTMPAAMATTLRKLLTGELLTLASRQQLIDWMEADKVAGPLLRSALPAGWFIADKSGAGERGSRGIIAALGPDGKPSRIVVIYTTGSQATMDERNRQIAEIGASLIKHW
T6 sequence (Q51574 22-275): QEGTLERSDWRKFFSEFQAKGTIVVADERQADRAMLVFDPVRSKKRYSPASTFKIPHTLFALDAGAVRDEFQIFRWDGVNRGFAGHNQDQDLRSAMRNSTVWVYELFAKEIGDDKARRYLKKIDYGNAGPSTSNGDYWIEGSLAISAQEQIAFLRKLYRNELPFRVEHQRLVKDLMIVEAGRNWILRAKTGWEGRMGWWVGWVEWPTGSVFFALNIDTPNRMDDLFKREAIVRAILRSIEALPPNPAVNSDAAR
T3 sequence (P13661 26-276): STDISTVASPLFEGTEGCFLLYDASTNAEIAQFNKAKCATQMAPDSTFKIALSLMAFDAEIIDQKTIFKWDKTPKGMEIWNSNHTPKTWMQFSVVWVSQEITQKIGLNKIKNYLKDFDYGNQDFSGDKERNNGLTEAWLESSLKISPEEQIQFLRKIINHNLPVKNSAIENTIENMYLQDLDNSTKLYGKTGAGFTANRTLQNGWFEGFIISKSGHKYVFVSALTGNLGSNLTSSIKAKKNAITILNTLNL
AmpC (P99), sequence (P05364 21-381): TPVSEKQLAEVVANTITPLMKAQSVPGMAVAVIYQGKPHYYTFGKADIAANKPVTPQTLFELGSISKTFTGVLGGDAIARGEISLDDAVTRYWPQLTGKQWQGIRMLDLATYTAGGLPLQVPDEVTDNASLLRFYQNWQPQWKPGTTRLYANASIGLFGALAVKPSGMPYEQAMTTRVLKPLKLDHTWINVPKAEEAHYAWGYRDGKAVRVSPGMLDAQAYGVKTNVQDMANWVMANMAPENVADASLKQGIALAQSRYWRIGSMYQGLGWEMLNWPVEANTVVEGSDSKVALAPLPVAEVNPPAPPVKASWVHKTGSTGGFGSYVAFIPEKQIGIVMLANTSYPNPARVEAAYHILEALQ
T5 sequence (Q9EXV5 entry or part of it): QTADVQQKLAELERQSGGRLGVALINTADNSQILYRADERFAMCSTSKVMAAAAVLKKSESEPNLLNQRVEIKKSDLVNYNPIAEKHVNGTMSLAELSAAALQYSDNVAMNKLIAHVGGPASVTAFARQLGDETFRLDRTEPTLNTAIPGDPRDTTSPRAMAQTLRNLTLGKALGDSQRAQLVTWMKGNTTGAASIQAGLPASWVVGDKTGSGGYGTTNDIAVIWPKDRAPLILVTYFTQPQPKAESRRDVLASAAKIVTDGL
T1 sequence (Q6XEC0 23-265 limits assumed): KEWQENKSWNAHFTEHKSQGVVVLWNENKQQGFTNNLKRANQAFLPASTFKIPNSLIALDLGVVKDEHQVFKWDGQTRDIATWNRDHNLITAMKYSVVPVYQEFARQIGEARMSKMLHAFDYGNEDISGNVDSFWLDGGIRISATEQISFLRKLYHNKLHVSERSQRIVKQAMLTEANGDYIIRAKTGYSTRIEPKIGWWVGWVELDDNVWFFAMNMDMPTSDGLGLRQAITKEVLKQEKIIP

| Compound | IC50 (AmpC (P99)) | IC50 (OXA-48) | IC50 (SHV-1) | IC50 (OXA-1) | IC50 (AmpC P. aeruginosa) | MIC [1] | MIC [2] | MIC [3] | MIC (E. cloacae P99 (AmpC)) | MIC [4] | MIC (E. coli RGN238 (OXA-1)) | MIC [5] | IC50 (OXA-11) | IC50 (CTX-M-15) | IC50 (OXA-15) | IC50 (TEM-1) | IC50 (KPC-2) |
| --- | --- | --- | --- | --- | --- | --- | --- | --- | --- | --- | --- | --- | --- | --- | --- | --- | --- |
| Cn1nc(C2=CCN3CC2N(OS(=O)(=O)[O-])C3=O)ccc1=O.[Na+] (centres unmarked) [Example 17, Sodium [4-(1-methyl-6-oxo-pyridazin-3-yl)-7-oxo-1,6-diazabicyclo[3.2.1]oct-3-en-6-yl] sulfate] | 2300 nM | 3.9 nM | 2.8 nM | 330 nM | 910 nM | > 32 µg/mL | > 32 µg/mL | 4 µg/mL | 16 µg/mL | > 32 µg/mL | 32 µg/mL | 16 µg/mL | 1400 nM | 5.7 nM | 57 nM | 1.2 nM | 130 nM |
| Cn1c(C2=CCN3CC2N(OS(=O)(=O)[O-])C3=O)cccc1=O.[Na+] (centres unmarked) [Example 18, Sodium [4-(N-methyl-6-oxo-2-pyridyl)-7-oxo-1,6-diazabicyclo[3.2.1]oct-3-en-6-yl] sulfate] | 230 nM | 20 nM | 11 nM | 35 nM | 2700 nM | > 32 µg/mL | > 32 µg/mL | > 32 µg/mL | 16 µg/mL | > 32 µg/mL | > 32 µg/mL | > 32 µg/mL | 540 nM | 17 nM | 14 nM | 2.7 nM | 1800 nM |
| Cn1cnc(C2=CCN3CC2N(OS(=O)(=O)[O-])C3=O)cc1=O.[Na+] (centres unmarked) [Example 20, Sodium [4-(N-methyl-6-oxo-pyrimidin-4-yl)-7-oxo-1,6-diazabicyclo[3.2.1]oct-3-en-6-yl] sulfate] | 1900 nM | 2.2 nM | 6.7 nM | 1900 nM | 3200 nM | > 32 µg/mL | > 32 µg/mL | 8 µg/mL | 32 µg/mL | > 32 µg/mL | > 32 µg/mL | 32 µg/mL | 430 nM | 3.5 nM | 94 nM | 1 nM | 87 nM |
| Cn1cc(C2=CCN3CC2N(OS(=O)(=O)[O-])C3=O)c(=O)n(C)c1=O.[Na+] (centres unmarked) [Example 23, Sodium [4-(1,3-dimethyluracil-5-yl)-7-oxo-1,6-diazabicyclo[3.2.1]oct-3-en-6-yl] sulfate] | 580 nM | 4.8 nM | 3.1 nM | 870 nM | 1600 nM | > 32 µg/mL | > 32 µg/mL | > 32 µg/mL | > 32 µg/mL | > 32 µg/mL | > 32 µg/mL | 32 µg/mL | 2200 nM | 12 nM | 110 nM | 1.5 nM | 97 nM |
| COc1ncc(C2=CCN3CC2N(OS(=O)(=O)[O-])C3=O)cn1.[Na+] (centres unmarked) [Example 24, Sodium [4-(2-methoxypyrimidin-5-yl)-7-oxo-1,6-diazabicyclo[3.2.1]oct-3-en-6-yl] sulfate] | 1100 nM | 3.6 nM | 20 nM | 380 nM | 1400 nM | > 32 µg/mL | > 32 µg/mL | 16 µg/mL | > 32 µg/mL | > 32 µg/mL | > 32 µg/mL | > 32 µg/mL | 1200 nM | 14 nM | 48 nM | 12 nM | 160 nM |
| O=C1N2CC(c3nc4ccccc4s3)=CC(C2)N1OS(=O)(=O)[O-].[Na+] (centres unmarked) [Example 27, Sodium [3-(1,3-benzothiazol-2-yl)-7-oxo-1,6-diazabicyclo[3.2.1]oct-3-en-6-yl] sulfate] | 9.1 nM | 6.4 nM | 2.1 nM | 560 nM | 68 nM | > 32 µg/mL | > 32 µg/mL | > 32 µg/mL | > 32 µg/mL | > 32 µg/mL | > 32 µg/mL | > 32 µg/mL | 150 nM | 1.4 nM | 99 nM | 0.21 nM | 2.7 nM |
| Cn1cc(C2=CC3CN(C2)C(=O)N3OS(=O)(=O)[O-])ccc1=O.[Na+] (centres unmarked) [Example 28, Sodium [3-(1-methyl-6-oxo-3-pyridyl)-7-oxo-1,6-diazabicyclo[3.2.1]oct-3-en-6-yl] sulfate] | 77 nM | 54 nM | 3.8 nM | 1000 nM | 520 nM | > 32 µg/mL | > 32 µg/mL | > 32 µg/mL | > 32 µg/mL | > 32 µg/mL | > 32 µg/mL | > 32 µg/mL | 430 nM | 4.4 nM | 18 nM | 1.6 nM | 6.5 nM |
| O=C1N2CC=C(c3cnsc3)C(C2)N1OS(=O)(=O)[O-].[Na+] (centres unmarked) [Example 29, Sodium [4-(isothiazol-4-yl)-7-oxo-1,6-diazabicyclo[3.2.1]oct-3-en-6-yl] sulfate] | 950 nM | 2.8 nM | 20 nM | 330 nM | 1200 nM | > 32 µg/mL | > 32 µg/mL | > 32 µg/mL | > 32 µg/mL | > 32 µg/mL | > 32 µg/mL | > 32 µg/mL | 1700 nM | 5.8 nM | 91 nM | 11 nM | 150 nM |
| O=C1N2CC=C(c3cscn3)C(C2)N1OS(=O)(=O)[O-].[Na+] (centres unmarked) [Example 31, sodium [4-(thiazol-4-yl)-7-oxo-1,6-diazabicyclo[3.2.1]oct-3-en-6-yl] sulfate] | 940 nM | 2.3 nM | 11 nM | 1100 nM | 1500 nM | > 32 µg/mL | > 32 µg/mL | 16 µg/mL | 16 µg/mL | > 32 µg/mL | > 32 µg/mL | 16 µg/mL | 990 nM | 5.5 nM | 97 nM | 4.9 nM | 360 nM |
| NCc1ncc(C2=CCN3CC2N(OS(=O)(=O)O)C3=O)s1 (centres unmarked) [Example 32, [4-[2-(aminomethyl)thiazol-5-yl]-7-oxo-1,6-diazabicyclo[3.2.1]oct-3-en-6-yl] hydrogen sulfate] | 4400 nM | 8.9 nM | 33 nM | 670 nM | 3200 nM | > 32 µg/mL | > 32 µg/mL | 8 µg/mL | 16 µg/mL | > 32 µg/mL | > 32 µg/mL | > 32 µg/mL | 3500 nM | 14 nM | 170 nM | 7.5 nM | 300 nM |
